In assay [1] the target is full-length wt-BTK enzyme (Homo sapiens (Human), UniProt Q06187). As to the kind of experiment: Biochemical kinase assay wt-BTK (IMAP). In short, it runs like this:
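IMAP fluorescence polarization assay: 1.2 nM enzyme pre-incubated 1 h with compound at room temperature, then 50 nM fluorescein-labeled MBP-derived peptide and 4 μM ATP added. Reaction ran 2 h at room temperature in the dark before quenching with IMAP binding solution.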

Assay [2] deals with wt-REC-1 mantle cell lymphoma cells. As to the kind of experiment: Cell proliferation assay wt-REC-1 (ATPlite, 72 hours). Particulars: 72 h; read-out: IC50 wt-REC-1. It is filed as cell-based. An outline of the steps: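 Luminescent viability read over 72 h, start-of-incubation signal recorded separately to separate growth from cell death. Percentage growth referenced to compound-free 0.3% DMSO wells; IC50 from 4-parameter logistic fit.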
(Cellular ATP, detected with luciferase, serves as a proxy for viable cell number.)

Assay [3] deals with wt-BTK, BTK C481S, BTK T474I and BTK C481S/T474I expressing 293 cells. As to the kind of experiment: Cell based washout, pBTK (Tyr223) Western blot. On the set-up: species or system human. Conditions: 1000 nM compound 2 hours, washed twice, harvested 0-24 hours; also cell lines expressing mutant BTK. As for the experimental part:
In vitro cellular (mutant) BTK inhibition, and inhibitor wash-out Generation of human wt-BTK, BTK C481S, BTK T474I, and BTK C481S/T474I expressing GripTite 293 MSR cells.
GripTite 293 MSR cells (Thermo Fisher, cat. no. R79507), here after referred to as 293 cells, were cultured in DMEM/F-12, GIutaMAX™ supplement medium (Thermo Fisher cat. no. 10565018) supplemented with 1% Penicilline/Streptomycine (Thermo Fisher cat. no. 15140122) 10% fetal bovine serum (Biowest, cat. no. Si181 0-500), 1× MEM Non-Essential Amino Acids (Thermo Fisher cat. no. 11140050) and 50 μg/ml Geneticin (Thermo Fisher cat. no. 10131035). Cells were transfected, with pEF6/V5-HisB (Thermo Fisher cat. no. V96120) expression vectors containing either full-length wildtype-BTK (canonical sequence NM_000061), BTK C481 S, BTK T474I or BTK C481 S/T474I (BaseClear) using Lipofectamine™ 3000 (Invitrogen). Because the stop codon at the end of the coding sequence of BTK has been conserved, the His-tag present in the expression vector is not being used. Immediately after transfection, cells were cultured in medium without Geneticin, and after 24 hours 50 μg/ml geneticin was added. 48 hours after transfection, medium was removed and replaced by medium containing both geneticin (50 μg/ml) and blasticidin (10 μg/ml) S HCl (Thermo Fisher, cat. no. A1113903). The resulting transfectants were cultured under blasticidin selection pressure for 18-35 passages to obtain stable wild-type BTK (wt-BTK), BTK C481S, BTK T474I, and BTK C481 S/T474I expressing cell pools. Stability of the (mutant) BTK expression in the 293 cell pools was confirmed by poly-acrylamide gel electrophoresis followed by Western blotting (FIG. 1A). […] For both experiments 10 μg of protein was separated on 4-12% Bis-Tris polyacrylamide gels.
Wild-type BTK, BTK C481S, BTK T474I or BTK C481 S/T474I expressing 293 cells were lysed in lysis buffer supplemented with protease inhibitors (Merck, cat. no. P8340) and phosphatase inhibitors (Thermo Fisher, cat. no. 78426). The protein concentration was determined with a Pierce BCA protein assay kit (Thermo Fisher, cat. no. 23227). Lysates were diluted to a concentration of 1 μg/μl in NuPage® LDS Sample Buffer (Thermo Fisher, cat. no. NP0008) with 167 mM DTT (Acros Organics, cat. no. 10686841) and denatured for 5 minutes at 95° C. The samples (10 μg protein) were, together with a pre stained protein ladder (Thermo Fisher, cat. no. 26616), separated on 4-12% Bis-Tris polyacrylamide gels (Thermo Fisher, cat. no. NP0324BOX). Separated protein was subsequently transferred, in methanol free transfer buffer (Thermo Fisher, cat. no. 35045), to a nitrocellulose membrane (Thermo Fisher, cat. no. 88018). Blots were first immunologically stained with phospho-BTK (Tyr223) rabbit mAb (Cell Signaling, cat. no. 5082S), and beta-actin rabbit mAb (Cell Signaling, cat. no. 4967S), followed by peroxidase conjugated goat anti-rabbit IgG (Cell Signaling, cat. no. 7074S). Afterwards, antibodies were removed using Western-blot stripping buffer (Thermo Fisher cat. no. 46428) and staining was repeated with a (total-)BTK mouse mAb (Abnova, cat. no. MAB0798), followed by peroxidase conjugated horse anti-mouse IgG (Cell Signaling, cat. no. 7076S). For all blots the colour development was performed with ECL horseradish peroxidase substrate (BioRad, cat. no. 170-5060).
Wild-type BTK, BTK C481S, BTK T474I, and BTK C481 S/T474I expressing 293 cells were growing exponentially when seeded in culture medium, without blasticidin, at a density of 2,000,000 cells/4 ml/well, in 25 cm^2 cell culture flasks (Greiner Bio-one, cat. no. 690175). Flasks were placed in a 37° C. C02-incubator for 16-24 hours after which 1 ml culture medium containing 5000 nM of the compound of Example 46 or Example 201, or Example 184, or Example 204, or Example 45 or (+/−) Loxo-305, or 0.05% DMSO (no compound) was added. 2 hours after addition of the inhibitors (0h) cells are either collected or washed twice with 5 ml culture medium. […]
(In general: A western blot detects proteins with antibodies after separation by electrophoresis.)

What is called IC50 is the concentration needed to halve the response being measured.

full-length wt-BTK enzyme, sequence (Q06187 whole entry): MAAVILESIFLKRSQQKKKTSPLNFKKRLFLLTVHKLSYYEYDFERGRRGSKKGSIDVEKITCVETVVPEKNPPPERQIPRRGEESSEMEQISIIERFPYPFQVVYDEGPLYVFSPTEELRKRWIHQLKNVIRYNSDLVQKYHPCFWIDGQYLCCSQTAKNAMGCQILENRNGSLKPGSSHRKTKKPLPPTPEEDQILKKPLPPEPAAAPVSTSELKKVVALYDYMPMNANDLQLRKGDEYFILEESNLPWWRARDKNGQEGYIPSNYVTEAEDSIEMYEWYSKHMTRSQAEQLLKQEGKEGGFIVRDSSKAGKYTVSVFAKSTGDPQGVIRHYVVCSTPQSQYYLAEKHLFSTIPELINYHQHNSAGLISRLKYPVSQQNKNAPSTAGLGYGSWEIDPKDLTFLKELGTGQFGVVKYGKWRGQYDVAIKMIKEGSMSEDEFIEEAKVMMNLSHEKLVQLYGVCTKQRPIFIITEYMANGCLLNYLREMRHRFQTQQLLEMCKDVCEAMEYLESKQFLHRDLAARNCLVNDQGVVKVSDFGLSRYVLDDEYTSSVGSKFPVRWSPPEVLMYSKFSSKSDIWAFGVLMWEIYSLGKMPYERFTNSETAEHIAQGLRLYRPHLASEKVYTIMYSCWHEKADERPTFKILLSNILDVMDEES

Take `N#Cc1ccnc(NC(=O)c2ccc(-c3nc4n5c(cnc(N)c35)/C=C/CCCCCC(=O)N[C@@H]3CC[C@@H]4C3)cc2)c1` [Example 204]: the IC50 in assay [1] is less than 0.005 µM; in assay [2], less than 0.1 µM. In addition, the “time for which level of phosphorylated BTK (pBTK (Tyr223)) is prohibited or reduced after wash-out” value in assay [3] is recorded as “at least 6 hours”.

`N#Cc1ccnc(NC(=O)c2ccc(-c3nc4n5c(cnc(N)c35)/C=C/CCOCCC(=O)N[C@@H]3CC[C@@H]4C3)cc2)c1` [Example 201]: the figures for the IC50 in assay [1] and in assay [2] were less than 0.005 µM and less than 0.1 µM, respectively. In addition, the “time for which level of phosphorylated BTK (pBTK (Tyr223)) is prohibited or reduced after wash-out” value in assay [3] is “at least 6 hours”.

For the molecule `Nc1ncc2c3c1c(-c1ccc(C(=O)Nc4cc(C(F)(F)F)ccn4)cc1)nn3[C@@H]1CCC[C@H](C1)NC(=O)CCOC/C=C/2` [Example 25], the results for the IC50 in assay [1] and in assay [2] were less than 0.005 µM and less than 0.1 µM, respectively. For the same molecule, the “time for which level of phosphorylated BTK (pBTK (Tyr223)) is prohibited or reduced after wash-out” value in assay [3] is listed as “at least 6 hours”.

Turning to `N#Cc1ccnc(NC(=O)c2ccc(-c3nc4n5c(cnc(N)c35)/C=C/CCCCCC(=O)N[C@@H]3CCC[C@@H]4C3)cc2)c1` [Example 184], the IC50 was less than 0.005 µM in assay [1] and less than 0.1 µM in assay [2]. Also, in assay [3], the “time for which level of phosphorylated BTK (pBTK (Tyr223)) is prohibited or reduced after wash-out” value is on record as “at least 6 hours”.

As to `C[C@@H]1CC(=O)N[C@@H]2CCC[C@H](C2)n2nc(-c3ccc(C(=O)Nc4cc(C(F)(F)F)ccn4)cc3)c3c(N)ncc(c32)/C=C/CCN1` [Example 45], the results for the IC50 in assay [1] and in assay [2] were less than 0.005 µM and less than 0.1 µM, respectively. Moreover, the “time for which level of phosphorylated BTK (pBTK (Tyr223)) is prohibited or reduced after wash-out” value in assay [3] is on record as “at least 6 hours”.

The values above are taken from patent US20250074911A1, “MACROCYCLIC BTK INHIBITORS” (Crossfire Oncology Holding B.V., priority 2021, published 2025).
